Molecular target: T1, human Cereblon WT GST-tagged protein (Homo sapiens, UniProt Q96SW2)
T1 construct: purchased CISBIO 64BDCRBNPEH
Assay: CRBN binding, HTRF CEREBLON BINDING kit
Conditions: CRBN binding, HTRF CEREBLON BINDING kit
How it was run: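 Binding inhibition was calculated from the 665/620 nm emission ratios, with blank wells and solvent wells as references. Test compounds competed for GST-tagged human Cereblon WT against a Thalidomide-Re reagent paired with GST Eu antibody. Plates were sealed and held at room temperature for 3 hours before the HTRF read.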

T1 sequence (Q96SW2 whole entry): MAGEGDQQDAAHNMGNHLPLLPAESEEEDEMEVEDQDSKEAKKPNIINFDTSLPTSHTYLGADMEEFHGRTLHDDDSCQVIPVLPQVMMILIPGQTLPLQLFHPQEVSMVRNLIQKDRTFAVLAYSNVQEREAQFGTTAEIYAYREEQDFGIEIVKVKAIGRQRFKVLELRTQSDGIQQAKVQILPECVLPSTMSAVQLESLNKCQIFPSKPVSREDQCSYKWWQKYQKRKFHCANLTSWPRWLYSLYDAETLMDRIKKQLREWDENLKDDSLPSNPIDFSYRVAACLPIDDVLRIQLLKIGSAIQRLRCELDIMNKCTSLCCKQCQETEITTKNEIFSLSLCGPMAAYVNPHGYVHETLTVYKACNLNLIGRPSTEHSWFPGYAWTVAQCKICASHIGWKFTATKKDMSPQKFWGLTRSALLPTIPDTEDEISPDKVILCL

Row | SMILES | IC50 [nM]
1 | O=C1CCN(c2ccc(CN3C4CCC3CN(c3ccc(-c5cc(F)c6c(c5)C(=O)N(C(C(=O)Nc5nccs5)c5ncn7c5CCC7)C6)cc3)C4)nc2)C(=O)N1 (stereo not shown) [GT-06255, 2-(6,7-dihydro-5H-pyrrolo[1,2-c]imidazol-1-yl)-2-(6-(4-(8-((5-(2,4-dioxotetrahydropyrimidin-1(2H)-yl)pyridin-2-yl)methyl)-3,8-diazabicyclo[3.2.1]octan-3-yl)phenyl)-4-fluoro-1-oxoisoindolin-2-yl)-N-(thiazol-2-yl)acetamide] | < 500
2 | O=C1CCC(c2cncc(CN3C[C@H]4C[C@@H]3CN4c3ccc(-c4cc(F)c5c(c4)C(=O)N(C(C(=O)Nc4nccs4)c4ncn6c4CCC6)C5)cc3)c2)C(=O)N1 (stereo partly drawn) [GT-07391, 2-(6,7-dihydro-5H-pyrrolo[1,2-c]imidazol-1-yl)-2-(6-(4-((1R,4R)-5-((5-(2,6-dioxopiperidin-3-yl)pyridin-3-yl)methyl)-2,5-diazabicyclo[2.2.1]heptan-2-yl)phenyl)-4-fluoro-1-oxoisoindolin-2-yl)-N-(thiazol-2-yl)acetamide] | < 500
3 | Cc1cc(-c2nc(C(=O)Nc3cc4oc(N5CCN(Cc6ccc(N7CCC(=O)NC7=O)cc6)CC5)nc4nc3N3CC[C@@H](O)C3)co2)ccn1 [GT-05807, (R)—N-(2-(4-(4-(2,4-dioxotetrahydropyrimidin-1(2H)-yl)benzyl)piperazin-1-yl)-5-(3-hydroxypyrrolidin-1-yl)oxazolo[4,5-b]pyridin-6-yl)-2-(2-methylpyridin-4-yl)oxazole-4-carboxamide] | 500 to 1000
4 | O=C1CCC(Nc2cccc(CN3CCC(N4CCN(c5ccc(-c6cc(F)c7c(c6)C(=O)N(C(C(=O)Nc6nccs6)c6ncn8c6CCC8)C7)cc5)CC4)CC3)c2)C(=O)N1 (stereo not shown) [GT-06331, 2-(6,7-dihydro-5H-pyrrolo[1,2-c]imidazol-1-yl)-2-(6-(4-(4-(1-(3-((2,6-dioxopiperidin-3-yl)amino)benzyl)piperidin-4-yl)piperazin-1-yl)phenyl)-4-fluoro-1-oxoisoindolin-2-yl)-N-(thiazol-2-yl)acetamide] | 1000 to 1900
5 | CN1CCN([C@@H]2CCCN(c3cnc(C(N)=O)c(Nc4ccc(C5CCN(Cc6ccc(N7CCC(=O)NC7=O)c(F)c6)CC5)cc4)n3)C2)C1=O [GT-04801, (R)-3-((4-(1-(4-(2,4-dioxotetrahydropyrimidin-1(2H)-yl)-3-fluorobenzyl)piperidin-4-yl)phenyl)amino)-5-(3-(3-methyl-2-oxoimidazolidin-1-yl)piperidin-1-yl)pyrazine-2-carboxamide] | < 500
6 | CCc1cc2c(cc1N1CCN(Cc3ccc(C4CCC(=O)NC4=O)cc3)CC1)C(C)(C)c1[nH]c3cc(C#N)ccc3c1C2=O (stereo not shown) [GT-07323, 8-(4-(4-(2,6-dioxopiperidin-3-yl)benzyl)piperazin-1-yl)-9-ethyl-6,6-dimethyl-11-oxo-6,11-dihydro-5H-benzo[b]carbazole-3-carbonitrile] | 500 to 1000
7 | O=C1CCC(c2ccc(CN3CCN(C4CCN(c5ccc(-c6cc(F)c7c(c6)C(=O)N(C(C(=O)Nc6nccs6)c6ncn8c6CCC8)C7)cc5)CC4)CC3)cc2)C(=O)N1 (stereo not shown) [GT-06243, 2-(6,7-dihydro-5H-pyrrolo[1,2-c]imidazol-1-yl)-2-(6-(4-(4-(4-(4-(2,6-dioxopiperidin-3-yl)benzyl)piperazin-1-yl)piperidin-1-yl)phenyl)-4-fluoro-1-oxoisoindolin-2-yl)-N-(thiazol-2-yl)acetamide] | < 500
8 | COC1CCN(c2nccc(Nc3cc4c(cn3)c(N3CCC(N(C)Cc5cccc(NC6CCC(=O)NC6=O)c5)CC3)nn4C(C)C)n2)CC1 (stereo not shown) [GT-06123, 3-((3-(((1-(1-isopropyl-6-((2-(4-methoxypiperidin-1-yl)pyrimidin-4-yl)amino)-1H-pyrazolo[4,3-c]pyridin-3-yl)piperidin-4-yl)(methyl)amino)methyl)phenyl)amino)piperidine-2,6-dione] | 500 to 1000
9 | O=C1CCC(c2cc(CN3C[C@H]4C[C@@H]3CN4c3ccc(-c4cc(F)c5c(c4)C(=O)N(C(C(=O)Nc4nccs4)c4ncn6c4CCC6)C5)cc3)ccn2)C(=O)N1 (stereo partly drawn) [GT-07390, 2-(6,7-dihydro-5H-pyrrolo[1,2-c]imidazol-1-yl)-2-(6-(4-((1R,4R)-5-((2-(2,6-dioxopiperidin-3-yl)pyridin-4-yl)methyl)-2,5-diazabicyclo[2.2.1]heptan-2-yl)phenyl)-4-fluoro-1-oxoisoindolin-2-yl)-N-(thiazol-2-yl)acetamide] | 500 to 1000
10 | CCc1cc2c(cc1N1CCN(Cc3cccc(NC4CCC(=O)NC4=O)c3)CC1)C(C)(C)c1[nH]c3cc(C#N)ccc3c1C2=O (stereo not shown) [GT-07328, 8-(4-(3-((2,6-dioxopiperidin-3-yl)amino)benzyl)piperazin-1-yl)-9-ethyl-6,6-dimethyl-11-oxo-6,11-dihydro-5H-benzo[b]carbazole-3-carbonitrile] | < 500
11 | CN1CCN([C@@H]2CCCN(c3cnc(C(N)=O)c(Nc4ccc(C5CCN(Cc6cccc(N7CCC(=O)NC7=O)c6)CC5)cc4)n3)C2)C1=O [GT-04800, (R)-3-((4-(1-(3-(2,4-dioxotetrahydropyrimidin-1(2H)-yl)benzyl)piperidin-4-yl)phenyl)amino)-5-(3-(3-methyl-2-oxoimidazolidin-1-yl)piperidin-1-yl)pyrazine-2-carboxamide] | 500 to 1000
12 | O=C1CCN(c2cncc(CN3C[C@H]4C[C@@H]3CN4c3ccc(-c4cc(F)c5c(c4)C(=O)N(C(C(=O)Nc4nccs4)c4ncn6c4CCC6)C5)cc3)c2)C(=O)N1 (stereo partly drawn) [GT-07388, 2-(6,7-dihydro-5H-pyrrolo[1,2-c]imidazol-1-yl)-2-(6-(4-((1R,4R)-5-((5-(2,4-dioxotetrahydropyrimidin-1(2H)-yl)pyridin-3-yl)methyl)-2,5-diazabicyclo[2.2.1]heptan-2-yl)phenyl)-4-fluoro-1-oxoisoindolin-2-yl)-N-(thiazol-2-yl)acetamide] | < 500
13 | Nc1nc(Nc2ccc(S(=O)(=O)N3CCN(Cc4ccc(N5CCC(=O)NC5=O)cc4)CC3)cc2)nn1C(=O)c1c(F)cccc1F [GT-06751, 1-(4-((4-((4-((5-amino-1-(2,6-difluorobenzoyl)-1H-1,2,4-triazol-3-yl)amino)phenyl)sulfonyl)piperazin-1-yl)methyl)phenyl)dihydropyrimidine-2,4(1H,3H)-dione] | 1000 to 1900
14 | CN1CCN([C@@H]2CCCN(c3cnc(C(N)=O)c(Nc4ccc(C5CCN(Cc6ccc(C7CCC(=O)NC7=O)cc6)CC5)cc4)n3)C2)C1=O (stereo partly drawn) [GT-04798, 3-((4-(1-(4-(2,6-dioxopiperidin-3-yl)benzyl)piperidin-4-yl)phenyl)amino)-5-((R)-3-(3-methyl-2-oxoimidazolidin-1-yl)piperidin-1-yl)pyrazine-2-carboxamide] | < 500
15 | Cc1nc2c(F)cc(-c3nc(Nc4ccc(N5CCC(N(C)Cc6cccc(N7CCC(=O)NC7=O)c6)CC5)cn4)ncc3F)cc2n1C(C)C [GT-06839, 1-(3-(((1-(6-((5-fluoro-4-(4-fluoro-1-isopropyl-2-methyl-1H-benzo[d]imidazol-6-yl)pyrimidin-2-yl)amino)pyridin-3-yl)piperidin-4-yl)(methyl)amino)methyl)phenyl)dihydropyrimidine-2,4(1H,3H)-dione] | 1000 to 1900
16 | COc1cc(N2CCN(Cc3ccc(C4CCC(=O)NC4=O)cn3)CC2)ccc1Nc1ncc(Cl)c(Nc2ccccc2P(C)(C)=O)n1 (stereo not shown) [GT-07713, 3-(6-((4-(4-((5-chloro-4-((2-(dimethylphosphoryl)phenyl)amino)pyrimidin-2-yl)amino)-3-methoxyphenyl)piperazin-1-yl)methyl)pyridin-3-yl)piperidine-2,6-dione] | 500 to 1000
17 | Nc1nnc(-c2ccccc2O)cc1N1CCN(Cc2ccc(N3CCC(=O)NC3=O)cc2)CC1 [GT-04961, 1-(4-((4-(3-amino-6-(2-hydroxyphenyl)pyridazin-4-yl)piperazin-1-yl)methyl)phenyl)dihydropyrimidine-2,4(1H,3H)-dione] | 500 to 1000
18 | NC(=O)c1ncc(N2CCCCC2)nc1Nc1ccc(C2CCN(Cc3ccc(C4CCC(=O)NC4=O)c(F)c3)CC2)cc1 (stereo not shown) [GT-04786, 3-((4-(1-(4-(2,6-dioxopiperidin-3-yl)-3-fluorobenzyl)piperidin-4-yl)phenyl)amino)-5-(piperidin-1-yl)pyrazine-2-carboxamide] | < 500
19 | O=C1CCN(c2cccc(CN3CCC(N4CCN(c5ccc(-c6cc(F)c7c(c6)C(=O)N(C(C(=O)Nc6nccs6)c6ncn8c6CCC8)C7)cc5)CC4)CC3)c2)C(=O)N1 (stereo not shown) [GT-06328, 2-(6,7-dihydro-5H-pyrrolo[1,2-c]imidazol-1-yl)-2-(6-(4-(4-(1-(3-(2,4-dioxotetrahydropyrimidin-1(2H)-yl)benzyl)piperidin-4-yl)piperazin-1-yl)phenyl)-4-fluoro-1-oxoisoindolin-2-yl)-N-(thiazol-2-yl)acetamide] | 500 to 1000
20 | O=C1CCN(c2ccc(CN3CCN(C4CCN(c5ccc(-c6cc(F)c7c(c6)C(=O)N(C(C(=O)Nc6nccs6)c6ncn8c6CCC8)C7)cc5)CC4(F)F)CC3)nc2)C(=O)N1 (stereo not shown) [GT-06319, 2-(6,7-dihydro-5H-pyrrolo[1,2-c]imidazol-1-yl)-2-(6-(4-(4-(4-((5-(2,4-dioxotetrahydropyrimidin-1(2H)-yl)pyridin-2-yl)methyl)piperazin-1-yl)-3,3-difluoropiperidin-1-yl)phenyl)-4-fluoro-1-oxoisoindolin-2-yl)-N-(thiazol-2-yl)acetamide] | < 500
21 | CC(C)(O)c1cc2nc(C3CCN(Cc4ccc(N5CCC(=O)NC5=O)cc4)CC3)oc2cc1NC(=O)c1cccc(C(F)(F)F)n1 [GT-05772, N-(2-(1-(4-(2,4-dioxotetrahydropyrimidin-1(2H)-yl)benzyl)piperidin-4-yl)-5-(2-hydroxypropan-2-yl)benzo[d]oxazol-6-yl)-6-(trifluoromethyl)picolinamide] | 1000 to 1900
22 | CN1CCN([C@@H]2CCCN(c3cnc(C(N)=O)c(Nc4ccc(C5CCN(Cc6ccc(N7CCC(=O)NC7=O)cc6)CC5)cc4)n3)C2)C1=O [GT-04802, (R)-3-((4-(1-(4-(2,4-dioxotetrahydropyrimidin-1(2H)-yl)benzyl)piperidin-4-yl)phenyl)amino)-5-(3-(3-methyl-2-oxoimidazolidin-1-yl)piperidin-1-yl)pyrazine-2-carboxamide] | 500 to 1000

From patent publication US20260274829A1, “NEW E3 UBIQUITIN LIGASE LIGAND, PROTEIN DEGRADATION AGENT AND USE THEREOF” (GLUETACS THERAPEUTICS (SHANGHAI) CO., LTD., priority 2023, published 2026)
